Source: the supplement of paper PMC4121296

Experiments:
Conditions in all cases: exposure: 5-72 hpf
[1] = test system: Danio rerio embryo (fli1:egfp); test: arterial (dorsal aorta) circulation score at 72 hpf (normalized DA-Max (arbitrary units)); higher = more circulation
Procedure: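 fli1:egfp zebrafish embryos exposed 5-72 hpf to chemical (0.05-50 µM, 0.1% DMSO); arterial circulation at 72 hpf quantified from stream acquisitions of the dorsal aorta by FFT-based analysis (DA-Max, normalized dorsal aorta signal); only concentrations passing survival/body-length criteria analyzed.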

[2] = test system: Danio rerio embryo (fli1:egfp); test: intersegmental vessel area normalized to body length at 72 hpf (ISV area / body length (normalized units)); higher = more vessel area
Procedure: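 fli1:egfp zebrafish embryos exposed 5-72 hpf to chemical (0.05-50 µM, 0.1% DMSO); intersegmental vessel (ISV) eGFP area quantified by MetaXpress journal at 72 hpf and normalized to body length.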

[3] = test system: Danio rerio embryo (fli1:egfp); test: pericardial area at 72 hpf (image area units (not stated)); higher = larger pericardial area (edema)
Procedure: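 fli1:egfp zebrafish embryos exposed 5-72 hpf to chemical (0.05-50 µM, 0.1% DMSO); pericardial area at 72 hpf measured by semi-automated MetaXpress journal (increase indicates edema).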

[4] = test system: Danio rerio embryo (fli1:egfp); test: heart rate at 72 hpf (beats per minute); higher = faster heart rate
Procedure: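 fli1:egfp zebrafish embryos exposed 5-72 hpf to chemical (0.05-50 µM, 0.1% DMSO) in 384-well plates; heart rate at 72 hpf quantified from stream acquisitions by semi-automated MetaXpress journal (peak counting); only embryos in concentrations passing survival/body-length criteria analyzed.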

[5] = test system: Danio rerio embryo (fli1:egfp); test: body length at 72 hpf (µm); higher = longer body (less growth inhibition)
Procedure: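 Transgenic fli1:egfp zebrafish embryos (one per well, 384-well plate) exposed statically from 5 to 72 hpf at 28 °C to chemical (0.05-50 µM, 0.1% DMSO); at 72 hpf anesthetized and imaged on ImageXpress; body length of live, hatched, correctly oriented embryos measured by automated MetaXpress journal. Dead/unhatched/misoriented embryos have no value.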

CN(C)C(=S)SSC(=S)N(C)C [Thiram]
Conditions | arterial, [1] | body length at 72 hpf, [5] | heart rate at 72 hpf, [4] | intersegmental vessel area normalized, [2] | pericardial area at 72 hpf, [3]
95 pM | 9.22 | 3070 | 180 | 95.8 | 11600
0.00019 µM | 11.1 | 3010 | 187 | 101 | 11600
0.00038 µM | 9.48 | 3060 | 179 | 97.6 | 12500
0.00076 µM | 10.3 | 3020 | 192 | 98.6 | 11500
0.0015 µM | 11 | 3050 | 191 | 95.6 | 11200
0.003 µM | 9.4 | 3070 | 196 | 99.4 | 12900
0.0061 µM | 8.74 | 3050 | 196 | 110 | 14600
0.0122 µM | 9.58 | 3070 | 189 | 99.1 | 12000
0.0244 µM | 11.3 | 3080 | 179 | 97.9 | 12400

CCCCSP(=O)(SCCCC)SCCCC [Tribufos]
Conditions | arterial, [1] | body length at 72 hpf, [5] | heart rate at 72 hpf, [4] | intersegmental vessel area normalized, [2] | pericardial area at 72 hpf, [3]
0.05 µM | 11.1 | 2900 | 166 | 79.6 | 13400
0.098 µM | 14.1 | 2950 | 161 | 84.8 | 13600
0.195 µM | 14.9 | 2990 | 182 | 92.3 | 14700
0.39 µM | 15.4 | 2940 | 169 | 83.8 | 13700
0.78 µM | 14.8 | 2940 | 167 | 86 | 14600
1.56 µM | 16.1 | 2910 | 164 | 87.5 | 14200
3.125 µM | 14.5 | 2980 | 172 | 81.8 | 13300
6.25 µM | 15 | 2970 | 176 | 94.4 | 15200
12.5 µM | 13.9 | 2870 | 166 | 81.3 | 13400

CO/N=C(/C(=O)OC)c1ccccc1CO/N=C(\C)c1cccc(C(F)(F)F)c1 [Trifloxystrobin]
Conditions | arterial, [1] | body length at 72 hpf, [5] | heart rate at 72 hpf, [4] | intersegmental vessel area normalized, [2] | pericardial area at 72 hpf, [3]
0.05 µM | 12.1 | 2950 | 172 | 71 | 12800
0.098 µM | 11.6 | 3060 | 171 | 73.5 | 10600
0.195 µM | 15.7 | 3030 | 167 | 70.2 | 12300
0.39 µM | 15 | 2970 | 173 | 67.6 | 12200
0.78 µM | 14.9 | 3000 | 166 | 68.9 | 13900
